Assay results reported in publication PMC9176062, “Phase Ib study of combinations of avadomide (CC‐122), CC‐223, CC‐292, and rituximab in patients with relapsed/refractory diffuse large B‐cell lymphoma” (EJHaem, 2022).

Key:
p4EBP1 = experiment: mTOR signaling pathway biomarker p4EBP1 in blood; format: in vivo, human
Protocol: (§1) AEs were assessed according to the National Cancer Institute Common Terminology Criteria for AEs, version 4.03, up to 28 days after the last treatment. Blood samples for PK analysis were collected on days 15 to 28, predose, and at 1.5 and 3 h post‐dose on days 1 and 15 of cycle 1 for all dose cohorts. Additional blood samples were collected on day 15 from patients in dose level 2 of arm C to examine CC‐223 and CC‐292 steady‐state PK. Pharmacodynamic biomarkers of each novel agent were explored at baseline and cycle 1, day 1 (pre‐dose, and at 1.5 and 3 h) and cycle 1, day 15 (pre‐dose, and at 1.5 and 3 h), including cereblon modulation substrates in B and T cells in patients treated with CC‐122 and mTOR signaling pathway biomarkers (e.g., p4EBP1 and pAKT) in patients treated with CC‐223. Tumor assessments were performed at screening and at the end of even‐numbered cycles through cycle 6, then every three cycles through cycle 12, and every 6 months thereafter. Responses were assessed by the investigator per International Working Group 2007 criteria.
(§2) Safety analyses were performed on all patients who received ≥1 dose of study treatment (safety population). The PK population comprised all patients who took ≥1 dose of study treatment and had ≥1 measured drug concentration. […] The biomarker‐evaluable population comprised all patients who took ≥1 dose of study treatment and had ≥1 pharmacodynamic assessment. […] PK parameters were calculated using actual times relative to the most recent administration. The median duration of response (DOR) and median PFS were calculated per the Kaplan‐Meier method.
(§3) Per cent change from baseline in Aiolos in CD3+ T cells (A) and CD19+ B cells (B) and in p4EBP1 (C) and pAKT (D) at 3 h post‐dose on day 1 of cycle 1 (biomarker‐evaluable population). The change in Aiolos expression in CD3+ T cells and CD19+ B cells was calculated within each avadomide‐ and CC‐223‐containing arm. *p ≤ 0.05 versus baseline; **p ≤ 0.01 versus baseline; ***p ≤ 0.001 versus baseline; DL, dose level; MEFL, molecules of equivalent fluorescence label; NS, not significant

[1] = Steady‐state plasma pharmacokinetics; format: in vivo; conditions: human, oral, CC‐223 + CC‐292 (arm C dose level 2, day 15); for clearance: read-out: apparent plasma clearance (converted); for Vd: read-out: mean apparent volume of distribution; for Tmax: read-out: median Tmax; for half-life: read-out: terminal half‐life (converted)
Protocol: as §1
Safety analyses were performed on all patients who received ≥1 dose of study treatment (safety population). The PK population comprised all patients who took ≥1 dose of study treatment and had ≥1 measured drug concentration. […] The biomarker‐evaluable population comprised all patients who took ≥1 dose of study treatment and had ≥1 pharmacodynamic assessment. Safety and efficacy analyses were based on the safety population except where noted (PK and biomarkers). PK parameters were calculated using actual times relative to the most recent administration. The median duration of response (DOR) and median PFS were calculated per the Kaplan‐Meier method.
FIGURE S3 Summary of pharmacokinetic parameters and mean plasma concentration-time profiles of (A) CC-223 and (B) CC-292. Summary of pharmacokinetic parameters and mean plasma concentration-time profiles of (A) CC-223 and (B) CC-292. […] Data are geometric means (CV%) except for Tmax, for which medians (min, max) are presented.

patients with R/R DLBCL = experiment: Treatment duration, modification, and exposure; format: in vivo; conditions: for patients with dose reductions of the drug: all patients who received the drug
Protocol: CC‐122 hydrochloride, referred to here as CC‐122, as an active pharmaceutical ingredient in capsule (AIC) formulation, was administered orally once daily (QD). An alternate intermittent schedule of CC‐122 QD for five of every seven consecutive days (5/7), which improved tolerability and reduced the frequency and severity of neutropenia in a study of CC‐122 monotherapy in DLBCL, was also explored. CC‐292 was administered orally twice daily (BID) and CC‐223 was administered orally QD. Rituximab was administered on day 8 of cycle 1, day 1 of cycles 2–6, and day 1 of every third cycle thereafter. Patients in arm A received CC‐122 and CC‐223 with or without rituximab (starting at CC‐122 2 mg QD and CC‐223 20 mg QD), patients in arm B received CC‐122 plus CC‐292 with or without rituximab (starting at CC‐122 2 mg QD and CC‐292 500 mg BID), patients in arm C were treated with CC‐223 and CC‐292 (starting at CC‐223 20 mg QD and CC‐292 500 mg BID), and those in arm D received CC‐122 plus rituximab (starting at CC‐122 2 mg QD). In arm D, a CC‐122 3 mg formulated capsule was introduced with the same strength as CC‐122 3 mg AIC. Each dose level was cleared before the next was started. If unacceptable toxicity occurred at the initial dose level, dose reductions for CC‐122 (1.5 mg QD and 1 mg QD) and CC‐223 (15 mg QD) were allowed; no starting dose reductions for CC‐292 were planned. For arm A, the Safety Review Committee (SRC) determined which of the two drugs in the doublet to reduce. For arms B and D, the CC‐122 dose was reduced and for arm C, the CC‐223 dose was reduced. Assignment of patients to study arms was at the discretion of the investigator and based on slot availability per the study design.
Patients who experienced dose‐limiting toxicity (DLT) after receiving ≥1 dose of study treatment or those who received ≥80% of planned doses of CC‐122, CC‐223, CC‐292, and rituximab during cycle 1 without experiencing a DLT were considered DLT‐evaluable. If zero out of ≥3 or ≤1 out of six evaluable patients in a cohort experienced a DLT during cycle 1 in parallel dose cohorts, then dose escalation could occur. DLTs are defined in the Supplementary Materials; individual investigators performed response assessments and determined DLTs. The NTD was defined as the dose level at which ≥2 of six evaluable patients in a cohort experienced a DLT during cycle 1. […] During cycle 1, any adverse event (AE) that led to dose reduction was considered a DLT. Patients could resume CC‐122 at a reduced dose only if they recovered to grade ≤1 within 14 days of dose interruption; two dose reductions were allowed before the patient was withdrawn from the study. Dose reductions were permitted for CC‐122, CC‐223, and CC‐292; no dose reductions were allowed for rituximab, but treatment could be discontinued at the discretion of the investigator. […] For arms A, B, and D, CC‐122 dosing was modified to the intermittent 5/7‐day schedule based on SRC review and escalated until the MTD/RP2D was established. Treatment was given until disease progression, unacceptable toxicity, or patient/physician decision to withdraw consent.
^aTreatment duration defined as date of last derived dose – date of first dose + 1.
^bDefined as the ratio of actual dose received to planned dose over the treatment period.

pAKT = experiment: mTOR signaling pathway biomarker pAKT in blood; format: in vivo, human
Protocol: as §1, §2, §3

R/R DLBCL = conditions: cited from earlier work
[2] = arm A (with CC‐122), 20 mg of CC‐223, 3 h post‐dose vs baseline
[3] = arm C (with CC‐292), 20 mg of CC‐223, 3 h post‐dose
[4] = arm C (with CC‐292), CC‐223 15 mg
[5] = Overall (all arms with the drug)

## CO[C@H]1CC[C@H](N2C(=O)CNc3ncc(-c4ccc(C(C)(C)O)nc4)nc32)CC1 [CC‐223]
p4EBP1; [2]
  median reduction in p4EBP1 levels: approximately 30%
p4EBP1; [3]
  increase of p4EBP1 levels from baseline: approximately 8%
p4EBP1; [4]
  reduction of p4EBP1: approximately 30%
[1]
  clearance: ~405 mL/min
  Vd: 127 L
  Tmax: 1.5 h
  half-life: ~3.6 h
Patients with R/R DLBCL; Arm A (Avadomide + CC-223 ± R)
  ≥1 dose interruption: 25 (80.6) n (%)
  ≥1 dose interruption: Adverse event: 23 (74.2) n (%)
  ≥1 dose interruption: Other: 10 (32.3) n (%)
  ≥1 dose interruption: Per protocol: 1 (3.2) n (%)
  ≥1 dose reduction: 10 (32.3) n (%)
  ≥1 dose reduction: Adverse event: 7 (22.6) n (%)
  ≥1 dose reduction: Other: 2 (6.5) n (%)
  ≥1 dose reduction: Per protocol: 0 n (%)
Patients with R/R DLBCL; Arm C (CC-292 + CC-223)
  ≥1 dose interruption: 9 (64.3) n (%)
  ≥1 dose interruption: Adverse event: 8 (57.1) n (%)
  ≥1 dose interruption: Other: 3 (21.4) n (%)
  ≥1 dose interruption: Per protocol: 1 (7.1) n (%)
  ≥1 dose reduction: 1 (7.1) n (%)
  ≥1 dose reduction: Adverse event: 1 (7.1) n (%)
  ≥1 dose reduction: Other: 0 n (%)
  ≥1 dose reduction: Per protocol: 0 n (%)
Patients with R/R DLBCL; [5]
  ≥1 dose interruption: 34 (75.6) n (%)
  ≥1 dose interruption: Adverse event: 31 (68.9) n (%)
  ≥1 dose interruption: Other: 13 (28.9) n (%)
  ≥1 dose interruption: Per protocol: 2 (4.4) n (%)
  ≥1 dose reduction: 11 (24.4) n (%)
  ≥1 dose reduction: Adverse event: 8 (17.8) n (%)
  ≥1 dose reduction: Other: 2 (4.4) n (%)
  ≥1 dose reduction: Per protocol: 0 n (%)
Patients with R/R DLBCL
  patients with dose reductions of the drug: 24.4%
pAKT; [2]
  median reduction in pAKT levels: ~70%
pAKT; [3]
  median reduction of pAKT levels: approximately 50%
pAKT; [4]
  reduction of pAKT levels: approximately 50%

## C=CC(=O)Nc1cccc(Nc2nc(Nc3ccc(OCCOC)cc3)ncc2F)c1 [CC‐292]
[1]
  clearance: ~1170 mL/min
  Vd: 334 L
  Tmax: 1.5 h
  half-life: ~3.3 h
Patients with R/R DLBCL; Arm B (Avadomide + CC-292 ± R)
  ≥1 dose interruption: 14 (51.9) n (%)
  ≥1 dose interruption: Adverse event: 5 (18.5) n (%)
  ≥1 dose interruption: Other: 8 (29.6) n (%)
  ≥1 dose interruption: Per protocol: 1 (3.7) n (%)
  ≥1 dose reduction: 12 (44.4) n (%)
  ≥1 dose reduction: Adverse event: 5 (18.5) n (%)
  ≥1 dose reduction: Other: 8 (29.6) n (%)
  ≥1 dose reduction: Per protocol: 1 (3.7) n (%)
Patients with R/R DLBCL; Arm C (CC-292 + CC-223)
  ≥1 dose interruption: 6 (42.9) n (%)
  ≥1 dose interruption: Adverse event: 3 (21.4) n (%)
  ≥1 dose interruption: Other: 1 (7.1) n (%)
  ≥1 dose interruption: Per protocol: 1 (7.1) n (%)
  ≥1 dose reduction: 4 (28.6) n (%)
  ≥1 dose reduction: Adverse event: 3 (21.4) n (%)
  ≥1 dose reduction: Other: 1 (7.1) n (%)
  ≥1 dose reduction: Per protocol: 1 (7.1) n (%)
Patients with R/R DLBCL; [5]
  ≥1 dose interruption: 20 (48.8) n (%)
  ≥1 dose interruption: Adverse event: 8 (19.5) n (%)
  ≥1 dose interruption: Other: 9 (22.0) n (%)
  ≥1 dose interruption: Per protocol: 2 (4.9) n (%)
  ≥1 dose reduction: 16 (39.0) n (%)
  ≥1 dose reduction: Adverse event: 8 (19.5) n (%)
  ≥1 dose reduction: Other: 9 (22.0) n (%)
  ≥1 dose reduction: Per protocol: 2 (4.9) n (%)
Patients with R/R DLBCL
  patients with dose reductions of the drug: 39.0%

## O=C(/C=C\n1cnc(-c2cc(C(F)(F)F)cc(C(F)(F)F)c2)n1)NNc1cnccn1 [selinexor, reference compound]
R/R DLBCL; monotherapy, third‐line setting
  CR rates: 12%

## axicabtagene ciloleucel
R/R DLBCL; patients with a complete response
  24‐month PFS: 72%
